Measured values: the supplement of paper PMC10307832

How the values were obtained:
Assay in all cases: relative viability (nuclei count vs DMSO), 5 days (fraction); higher = more cells survive
[1] = compound: C1CSC2=C(C(=O)N1)SC3=C2C=C(C=C3)O [kb NB 142-70] + Cc1cc(Nc2cc(N3CCN(C)CC3)nc(Sc3ccc(NC(=O)C4CC4)cc3)n2)n[nH]1 [Tozasertib] (partner 0.1 µM)
In short: (§1)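 Relative viability was taken as the ratio of nuclei in treated wells to nuclei in vehicle wells. Lung cancer cell lines in 1536-well plates received compounds by pin tool one day after seeding, either one drug alone or a fixed anchor-drug dose plus five library-drug doses (not always all listed) in √10 steps. Nuclei were counted on 4× images after 5 days of treatment, and values are medians of duplicate plates.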

[2] = compound: NCC(=O)Nc1ccc(-n2nc(C(F)(F)F)cc2-c2ccc3c(ccc4ccccc43)c2)cc1 + CC1(C)CCC(c2ccc(Cl)cc2)=C(CN2CCN(c3ccc(C(=O)NS(=O)(=O)c4ccc(N[C@H](CCN5CCOCC5)CSc5ccccc5)c(S(=O)(=O)C(F)(F)F)c4)cc3)CC2)C1 [Navitoclax] (partner 0.5 µM)
In short: as §1

[3] = compound: NCC(=O)Nc1ccc(-n2nc(C(F)(F)F)cc2-c2ccc3c(ccc4ccccc43)c2)cc1 + Nc1nc2[nH]cc(CCc3ccc(C(=O)N[C@@H](CCC(=O)O)C(=O)O)cc3)c2c(=O)[nH]1 [Pemetrexed] (partner 0.2 µM)
In short: as §1

[4] = compound: C1CSC2=C(C(=O)N1)SC3=C2C=C(C=C3)O [kb NB 142-70] + C[C@]1(O)C[C@@H](c2nc(-c3ccc4ccc(-c5ccccc5)nc4c3)c3c(N)nccn32)C1 [Linsitinib] (partner 1 µM)
In short: as §1

Cell Line	relative viability ([1]; first compound 0.1 µM)	relative viability ([1]; first compound 1 µM)	relative viability ([1]; first compound 3.162 µM)	relative viability ([2]; first compound 0.02 µM)	relative viability ([2]; first compound 0.06325 µM)	relative viability ([2]; first compound 0.2 µM)	relative viability ([2]; first compound 0.6325 µM)	relative viability ([2]; first compound 2 µM)	relative viability ([3]; first compound 0.02 µM)	relative viability ([3]; first compound 0.06325 µM)	relative viability ([3]; first compound 0.2 µM)	relative viability ([3]; first compound 0.6325 µM)	relative viability ([3]; first compound 2 µM)	relative viability ([4]; first compound 0.1 µM)	relative viability ([4]; first compound 1 µM)	relative viability ([4]; first compound 3.162 µM)
ChaGo-K-1	0.244	0.246	0.219	0.931	1.06	0.636	0.939	1.19	0.256	0.263	0.263	0.27	0.264			
COR-L 105	0.319	0.287	0.255	0.817	0.947	0.649	0.841	0.703	1.19	1.21	1.09	1.23	1.01	1.17	1	0.94
NCI-H1975	0.787	0.746	0.28	1.04	1.1	1.2	1.11	0.997	0.309	0.293	0.291	0.282	0.278	0.946	1.11	0.519
Calu-6				0.885	0.812	1.09	0.844	0.878						0.93	0.889	0.683
NCI-H358	0.109	0.0809	0.077						0.168	0.164	0.179	0.193	0.185	0.654	0.522	0.146
NCI-H1648	0.396	0.524	0.398						0.625	0.636	0.647	0.706	0.687			
EBC-1				0.451	0.427	0.554	0.456	0.435						0.897	0.952	0.817
NCI-H1299				1.02	1.06	1.09	1.04	1.07						1.07	1.07	1.14
NCI-H2342	0.447	0.614	0.544						0.796	0.757	0.764	0.762	0.812			
IA-LM				0.814	0.808	0.898	0.86	0.827						0.621	0.771	0.87
NCI-H2170	0.688	0.735	0.481	0.56	0.598	0.578	0.561	0.6	0.251	0.262	0.239	0.265	0.269			
NCI-H727	0.607	0.541	0.514	0.464	0.568	0.52	0.474	0.469						0.356	0.323	0.28
NCI-H650	0.747	0.668	0.435						0.907	0.9	0.896	0.872	0.913	0.908	0.878	0.755
NCI-H661	0.337	0.356	0.353						0.882	0.954	0.929	0.915	0.907	0.561	0.607	0.602
